Experimental data as given in patent publication US20210121527A1, “METHODS OF TREATING MINIMAL RESIDUAL CANCER” (ICAHN SCHOOL OF MEDICINE AT MOUNT SINAI, priority 2018, published 2021).

Assays:
[1] = test system: HER2^+ metastases and DCCs; assay: Sequential Abemaciclib then LY4 treatment of MMTV-HER2 mice; type: in vivo, mouse; details: Abemaciclib 50 mpk 4 weeks; LY4 50 mpk
Protocol: (§1) Mice, tumor growth, and tissue processing: The FVB/N-Tg (MMTVneu) mouse strain was obtained from Jackson Laboratories (Sacramento, Calif.). […] Before being used in any experiment, females underwent one round of pregnancy and at least two weeks of no lactation after weaning. Females between 24-32 weeks of age were injected intraperitoneally with vehicle (90% corn oil, 10% ethanol) or LY4 (50 mpk) daily, for two weeks. For the combination treatment, females 24-32 weeks of age were treated daily by oral gavage with Abemaciclib (50 mpk) for 4 weeks before starting the treatment described earlier with LY4. Tumor volumes were measured using the formula (Dxd^2)/2, where D is the longest and d is the shortest diameter. For CTC count, animals were anesthetized and whole blood was extracted by cardiac puncture. Mammary glands, lungs, and tumors were collected and fixed in 10% buffered formalin overnight before paraffin embedding. The bone marrow from the two lower limbs was flushed with a 26 G needle and further processed by Ficoll density gradient centrifugation. For CTC as well as for DTC detection in bone marrow, tissues were depleted of mature hematopoietic cells by anti-mouse antibody-labeled magnetic bead separation (Miltenyi Biotec, San Diego, Calif.) before fixation in formalin for 20 minutes at 4° C.

[2] = test system: MCF10A-HER2, ZR75.1, SKBR3; assay: 3D acini cultures in Matrigel, cleaved caspase-3 and P-histone H3; type: cell-based, human; details: 2 μM, 10 days
Protocol: Reagents, cell culture, and treatments: EGF was obtained from PeproTech (Rocky Hill, N.J.) and used at 100 ng/ml. Thapsigargin was from Sigma (St. Louis, Mo.) and used at 2 nM. The ZR75.1-H2B-Dendra2 cell line was generated by stable transfection of the H2B-Dendra2 plasmid (Gurskaya et al., “Engineering of a Monomeric Green-to-Red Photoactivatable Fluorescent Protein Induced by Blue Light,” Nat. Biotechnol. 24:461-465 (2006), which is hereby incorporated by reference in its entirety). For 3D cultures, MCF10A-HER2, SKBR3, and ZR75.1-H2B-Dendra2 cells were plated in growth factor-reduced Matrigel (Corning, Corning, N.Y.) and grown as described previously (Avivar-Valderas et al., “Regulation of Autophagy during ECM Detachment is Linked to a Selective Inhibition of mTORC1 by PERK,” Oncogene 32(41):4932-40 (2013), which is hereby incorporated by reference in its entirety). When referring to “low density,” 3,500 cells/8-well were seeded, and for “high density” 20,000 cells/8-well. Treatments with vehicle (DMSO) or LY4 (2 μM) were replaced every 24 hours for 2D and every 48 hours for 3D cultures. […]

[3] = test system: HER2^+ metastases and DCCs; assay: Metastasis, CTC and DCC quantification in MMTV-HER2 mice; type: in vivo, mouse; details: 50 mpk i.p. daily, two weeks
Protocol: as §1
IHC and IF: IHC and IF from paraffin-embedded sections was performed as previously described (Avivar-Valderas et al., “Regulation of Autophagy during ECM Detachment is Linked to a Selective Inhibition of mTORC1 by PERK,” Oncogene 32(41):4932-40 (2013), which is hereby incorporated by reference in its entirety). Briefly, slides were dewaxed and serially rehydrated. Heat-induced antigen retrieval was performed in either citrate buffer (10 mM, pH 6), EDTA buffer (1 mM, pH 8), or Tris/EDTA (pH9). Slides were further permeabilized in 0.1% Triton™-X100, blocked and incubated with primary antibody overnight at 4° C. at 1:50-1:200 dilution. For IHC, an additional step of endogenous peroxidase and avidin/biotin quenching was performed before primary antibody incubation. […] Next, slides were incubated in secondary antibodies (Life Technologies, Norwalk, Conn.) and mounted. For IHC, sections were processed using VectaStain ABC Elite kit (Vector Laboratories, Bulingame, Calif.) and DAB Substrate kit for peroxidase labelling (Vector Laboratories) and mounted in VectaMount medium (Vector laboratories). For IF, sections were mounted in ProLong Gold Antifade aqueous medium (Thermo Fisher, Waltham, Mass.).
In the case of immunocytofluorescence, cytospins of fixed cells (100,000-200,000 cells/cytospin were prepared by cyto-centrifugation at 500 rpm for 3 minutes on poly-prep slides, and the staining protocol was performed as explained below from the permeabilization onward. For the staining of 3D cultures, acini were fixed in 4% PFA for 20 minutes at 4° C., permeabilized with 0.5% Triton™-X100 in PBS for 20 minutes at room temperature, washed in PBS-glycine, and then blocked with 10% normal goat serum for 1 hour at 37° C., before performing immunofluorescence staining.

ZR75.1 HER2^+ cells = assay: 3D Matrigel culture of ZR75.1-H2B-Dendra2 cells at low or high density, live cells; type: cell-based, human; details: 2 μM, day 2 to day 8, 3D Matrigel
Protocol: Reagents, cell culture, and treatments: EGF was obtained from PeproTech (Rocky Hill, N.J.) and used at 100 ng/ml. Thapsigargin was from Sigma (St. Louis, Mo.) and used at 2 nM. The ZR75.1-H2B-Dendra2 cell line was generated by stable transfection of the H2B-Dendra2 plasmid (Gurskaya et al., “Engineering of a Monomeric Green-to-Red Photoactivatable Fluorescent Protein Induced by Blue Light,” Nat. Biotechnol. 24:461-465 (2006), which is hereby incorporated by reference in its entirety). For 3D cultures, MCF10A-HER2, SKBR3, and ZR75.1-H2B-Dendra2 cells were plated in growth factor-reduced Matrigel (Corning, Corning, N.Y.) and grown as described previously (Avivar-Valderas et al., “Regulation of Autophagy during ECM Detachment is Linked to a Selective Inhibition of mTORC1 by PERK,” Oncogene 32(41):4932-40 (2013), which is hereby incorporated by reference in its entirety). When referring to “low density,” 3,500 cells/8-well were seeded, and for “high density” 20,000 cells/8-well. Treatments with vehicle (DMSO) or LY4 (2 μM) were replaced every 24 hours for 2D and every 48 hours for 3D cultures.

SMILES: Cc1cc(NC(=O)[C@H](O)c2cc(F)cc(F)c2)ccc1-c1cnc(N)c(C(=O)NC(C)C)c1 [LY4, 2-amino-5-[4-[[(2R)-2-(3,5-difluorophenyl)-2-hydroxy-acetyl]amino]-2-methyl-phenyl]-N-isopropyl-pyridine-3-carboxamide]
- GADD34 in primary tumor sections [1]: eliminated the expression of GADD34
- apoptosis (cleaved caspase-3) in 3D acini [2]: significantly increased the levels of apoptosis (cleaved caspase-3)
- proliferation in 3D acini (phospho-histone H3) [2]: a significant change in the levels of proliferation as detected by phospho-histone H3 levels was not observed
- HER2^+ circulating tumor cells in blood [3]: no significant difference between vehicle and LY4-treated animals
- area of macro-metastases [3]: without affecting the area of these metastases
- number and incidence of lung macro-metastases (>100 cells) [3]: reduced the number and the incidence of macro-metastases
- number of DCCs in bone marrow [3]: significantly decreased the number of DCCs found in bone marrow
- number of P-Rb negative single DCCs in lung sections [3]: strongly reduced the number of non-proliferating (P-Rb negative) single DCCs
- number of P-Rb positive solitary DTCs in lung [3]: without affecting the number of P-Rb positive solitary DTCs
- number of lung micro-metastases (2-100 cells) [3]: significant decrease in the number of micro-metastases
- survival of quiescent single cells (low density) (ZR75.1 HER2^+ cells): eradicated the quiescent single ZR75.1 HER2^+ cells
- viability of cells seeded at high density (ZR75.1 HER2^+ cells): no significant effect on the viability
